Broadly, the pIC50 is the IC50 on a negative log10 scale, so that one unit is a factor of ten. A lower pIC50 goes with a large IC50.

The values below come from US10952999B2, “Inhibitor of cyclin-dependent kinase CDK9” (GENFLEET THERAPEUTICS (SHANGHAI) INC., priority 2017, dated 2021).

One data set deals with T1, CDK1/cyclin B (Homo sapiens, UniProt P06493).
T1 construct: purchased Invitrogen, USA
The data set is described as follows: Enzyme assay for inhibition of CDK protein in vitro (Z-LYTE). Format: biochemical. As for the experimental part: (§1) Compounds 1 and 14 diluted in DMSO were mixed with detected CDK protein (Invitrogen, USA) respectively, incubated at room temperature for 30 minutes; and then mixed with Kinase/Z-LYTE™ Peptide Substrate Mixture (Invitrogen, USA) and 4×ATP. The mixed system was transferred to a 384-well white opaque plate to react for 1 hour at room temperature; 5 μL of Development Solution (Invitrogen, USA) was added to react at room temperature for 1 hour, and finally Stop Reagent (Invitrogen, USA) was added to terminate the reaction and MD SpectraMax I3× microplate reader (Molecular Devices, USA) was used to read fluorescence values.

The next data set concerns the target T2, CDK11(non-active) (Homo sapiens, UniProt Q9BWU1).
T2 construct: purchased Invitrogen, USA
The description is as above. Format: biochemical. As to the method:
as §1

The next data set addresses T3, CDK14/cyclin Y (Homo sapiens, UniProt O94921).
T3 construct: purchased Invitrogen, USA
The data set is described as above. Format: biochemical. As for the experimental part: as §1

The next data set addresses T4, CDK16/cyclin Y (Homo sapiens, UniProt Q00536).
T4 construct: purchased Invitrogen, USA
The data set is described as above. Format: biochemical. As for the experimental part:
as §1

The target of another data set is T5, CDK2/cyclin A (Homo sapiens, UniProt P24941).
T5 construct: purchased Invitrogen, USA
The data set is described as above. Format: biochemical. As to the method: as §1

For a further data set, the target named is T6, CDK3/cyclin E1 (Homo sapiens, UniProt Q00526).
T6 construct: purchased Invitrogen, USA
The data set is described as above. Type of data set: biochemical. As for the experimental part:
as §1

A further data set concerns the target T7, CDK5/p25 (Homo sapiens, UniProt Q00535).
T7 construct: purchased Invitrogen, USA
The description is as above. Format: biochemical. As to the method:
as §1

The target of a further data set is T8, CDK7/cyclin HMNAT1 (Homo sapiens, UniProt P50613).
T8 construct: purchased Invitrogen, USA
The data set is described as above. Type of data set: biochemical. As for the experimental part: as §1

The next data set deals with T9, CDK8/cyclin C (Homo sapiens, UniProt P49336).
T9 construct: purchased Invitrogen, USA
Described as above. Format: biochemical. As to the method:
as §1

Another data set concerns the target T10, CDK9/cyclin T1 (Homo sapiens, UniProt P50750).
T10 construct: purchased Invitrogen, USA
The description is as above. Type of data set: biochemical. As to the method:
as §1

The subject of data set [1] is phosphorylation of RNAPII, MCL-1, and c-MYC in HL-60. The data set is described as follows: Effect on signaling pathway downstream of CDK9. Conditions: HL-60, 0.03-3 μM, 2 hours. Type of data set: cell-based. As for the experimental part:
(§2) Against four cells, acute myelocytic leukemia cell line (AML) OCI-AML-3, acute promyelocytic leukemia cell line NB-4, acute myelocytic leukemia cell line (AML) HL-60 and acute myelocytic leukemia cell line (AML) MV4-11 (all purchased from ATCC), by measuring the biochemical endpoints and functional endpoints of multiple cells, the effect of compound 1 was evaluated on CDK9 in cells and other protein kinases related to its signaling pathway, such as RNAPII, XIAP, MCL-1, c-MYC, BCL-2 and so on. […] The effect of Compound 1 on the phosphorylation of CDK9, RNAPII, XIAP, MCL-1, c-MYC, BCL-2 in these cell lines was determined (FIG. 1a-d).

In data set [2] the test system is phosphorylation of RNAPII, MCL-1, and c-MYC in MV4-11. Description: Effect on signaling pathway downstream of CDK9. Format: cell-based. Conditions: MV4-11, 0.03-3 μM, 2 hours. As for the experimental part: as §2
Data set [3] deals with phosphorylation of RNAPII, MCL-1, and c-MYC in NB-4. Description: Effect on signaling pathway downstream of CDK9. Type of data set: cell-based. Conditions: NB-4, 0.03-3 μM, 2 hours. As for the experimental part: as §2
The subject of data set [4] is phosphorylation of RNAPII, MCL-1, and c-MYC in OCI-AML-3. The data set is described as follows: Effect on signaling pathway downstream of CDK9. Format: cell-based. Conditions: OCI-AML-3, 0.03-3 μM, 2 hours. As to the method: as §2
A short description of data set [5]: Body weight of mice in the MV4-11 mouse model. Conditions: orally per day, Bal b/c mice. Type of data set: in vivo. As to the method: 24 Bal b/c female mice, 4-6 weeks, were purchased from Shanghai Slack Laboratory Animals Co., Ltd. and kept in SPF laboratory. The drinking water and padding were aseptically treated by autoclaving. All operations were carried out under aseptic conditions. On day 0, 5×10^6MV4-11 acute granulocyte leukemia cells (purchased from ATCC) were subcutaneously injected into the left side of all mice' back. Starting on day 15, all mice were divided into four groups (6 mice per group), methyl cellulose (HKI) solvent was orally administered to the first group of mice per day; compound 1 at a dose of 10 mg/kg mice body weight was orally administered to the second group of mice per day; compound 1 at a dose of 20 mg/kg mice body weight was orally administered to the third group of mice per day; compound 1 at a dose of 30 mg/kg mice body weight was orally administered to the fourth group of mice per day. From the start of administration, the length/width of the subcutaneous tumor was measured with a vernier caliper every day, and the body weight of the mouse was recorded every day, and the effect of compound 1 on the body weight of the mouse was observed. […] The trend of subcutaneous tumor growth was counted within day 16 to day 43, and the tumor volume was calculated as: length×width×width/2 mm^3.

Data set [6] concerns human non-small cell lung cancer cells, human small cell lung cancer cells, lung adenocarcinoma cells, and breast cancer cells. The data set is described as follows: Cancer cell growth, cells of cancer type other than hematological cancer as a panel. Conditions: lung and breast cancer cells of table 3. Type of data set: cell-based. An excerpt: In the examples, we used acute myelocytic leukemia (AML) OCI-AML-3, acute promyelocytic leukemia cell line NB-4, MDS-RAEB (myelodysplastic syndrome-excess blasts type) cell line SKM-1, human leukemia cell Nomo-1, acute myeloid leukemia cell line MOLM14, acute myeloid leukemia cell line MOLM13, acute myeloid leukemia cell line MV4-11, acute myeloid leukemia cell line HL-60, acute myeloid leukemia cell line OCI-AML-2, histiocytic lymphoma U-937, acute B cell leukemia cell line MEC-1, acute B cell leukemia cell line MEC-2, acute megakaryoblastic leukemia CMK, hamster lung cell CHL, hamster ovary cell CHO, human non-small cell lung cancer cell H1975, human non-small cell lung cancer cell H358, human small cell lung cancer cell H209, human lung adenocarcinoma cell H1395, human non-small cell lung cancer cell PC-9, human lung cancer cell H3122, human non-small cell lung cancer cell H2122, human non-small cell lung cancer cell H1915, human lung adenocarcinoma cell H1355, human non-small cell lung cancer cell HCC827, human breast cancer cell MDA-MB-231, human breast cancer cell MDA-MB-468, human breast cancer cell MCF-7, human breast cancer cell T47D, human breast cancer cell SK-Br-3, the above cells were purchased from ATCC. […]

pIC50: −log10 of the molar value.

T8 sequence (P50613 whole entry): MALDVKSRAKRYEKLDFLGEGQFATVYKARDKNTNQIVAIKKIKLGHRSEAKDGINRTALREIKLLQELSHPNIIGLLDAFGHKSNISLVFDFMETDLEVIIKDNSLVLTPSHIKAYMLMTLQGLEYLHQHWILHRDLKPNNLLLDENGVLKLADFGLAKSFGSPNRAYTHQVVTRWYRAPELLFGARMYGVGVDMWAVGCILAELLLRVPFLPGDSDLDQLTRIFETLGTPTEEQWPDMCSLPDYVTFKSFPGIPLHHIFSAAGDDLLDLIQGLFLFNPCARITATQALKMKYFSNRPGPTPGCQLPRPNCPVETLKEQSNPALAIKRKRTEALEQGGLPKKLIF
T8 sequence (P51946 whole entry partner): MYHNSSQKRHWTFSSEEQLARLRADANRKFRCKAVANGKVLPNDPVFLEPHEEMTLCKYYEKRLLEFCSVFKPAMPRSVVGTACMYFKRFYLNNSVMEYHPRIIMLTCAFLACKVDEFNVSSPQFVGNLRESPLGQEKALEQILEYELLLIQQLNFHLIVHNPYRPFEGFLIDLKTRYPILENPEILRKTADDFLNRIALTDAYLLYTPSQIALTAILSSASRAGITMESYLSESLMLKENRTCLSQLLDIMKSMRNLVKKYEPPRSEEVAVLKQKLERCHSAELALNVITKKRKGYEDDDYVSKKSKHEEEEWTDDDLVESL
T8 sequence (P51948 whole entry partner): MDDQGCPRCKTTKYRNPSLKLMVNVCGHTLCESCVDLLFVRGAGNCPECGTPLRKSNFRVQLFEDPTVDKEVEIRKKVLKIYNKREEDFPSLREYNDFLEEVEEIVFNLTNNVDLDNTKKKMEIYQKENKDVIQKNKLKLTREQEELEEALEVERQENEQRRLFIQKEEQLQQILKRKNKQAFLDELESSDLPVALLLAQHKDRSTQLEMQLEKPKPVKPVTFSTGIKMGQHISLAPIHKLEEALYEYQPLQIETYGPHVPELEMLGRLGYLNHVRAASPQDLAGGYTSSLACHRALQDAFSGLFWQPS
T4 sequence (Q00536 whole entry): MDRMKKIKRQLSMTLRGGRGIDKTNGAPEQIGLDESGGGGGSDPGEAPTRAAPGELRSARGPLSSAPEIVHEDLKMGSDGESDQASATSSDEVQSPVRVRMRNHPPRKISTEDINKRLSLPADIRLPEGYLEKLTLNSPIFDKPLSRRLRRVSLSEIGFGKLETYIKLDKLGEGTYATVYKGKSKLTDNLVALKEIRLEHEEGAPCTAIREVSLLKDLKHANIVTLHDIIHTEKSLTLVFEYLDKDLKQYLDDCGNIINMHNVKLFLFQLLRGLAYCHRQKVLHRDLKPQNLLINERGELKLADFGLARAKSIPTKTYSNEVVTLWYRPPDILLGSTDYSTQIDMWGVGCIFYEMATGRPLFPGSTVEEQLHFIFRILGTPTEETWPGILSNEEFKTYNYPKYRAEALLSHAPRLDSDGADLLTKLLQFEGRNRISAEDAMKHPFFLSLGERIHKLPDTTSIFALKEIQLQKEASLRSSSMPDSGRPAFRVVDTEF
T4 sequence (Q8ND76 whole entry partner): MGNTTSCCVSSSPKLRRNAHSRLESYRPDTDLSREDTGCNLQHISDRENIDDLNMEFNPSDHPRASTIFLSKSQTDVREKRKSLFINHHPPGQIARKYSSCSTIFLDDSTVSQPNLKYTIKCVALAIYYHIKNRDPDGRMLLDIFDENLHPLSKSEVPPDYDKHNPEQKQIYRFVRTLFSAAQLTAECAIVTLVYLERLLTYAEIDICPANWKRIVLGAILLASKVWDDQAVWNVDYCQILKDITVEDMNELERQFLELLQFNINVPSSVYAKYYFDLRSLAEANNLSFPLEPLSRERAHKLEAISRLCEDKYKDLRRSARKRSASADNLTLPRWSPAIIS
T1 sequence (P06493 whole entry): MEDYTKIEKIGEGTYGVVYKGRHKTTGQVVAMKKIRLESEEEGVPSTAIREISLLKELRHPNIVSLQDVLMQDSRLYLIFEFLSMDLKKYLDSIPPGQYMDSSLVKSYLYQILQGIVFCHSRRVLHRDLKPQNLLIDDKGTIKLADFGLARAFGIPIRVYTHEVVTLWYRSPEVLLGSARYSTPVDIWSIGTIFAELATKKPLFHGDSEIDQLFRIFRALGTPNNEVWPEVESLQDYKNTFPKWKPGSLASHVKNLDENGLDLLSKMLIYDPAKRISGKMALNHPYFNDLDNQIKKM
T1 sequence (P14635 whole entry partner): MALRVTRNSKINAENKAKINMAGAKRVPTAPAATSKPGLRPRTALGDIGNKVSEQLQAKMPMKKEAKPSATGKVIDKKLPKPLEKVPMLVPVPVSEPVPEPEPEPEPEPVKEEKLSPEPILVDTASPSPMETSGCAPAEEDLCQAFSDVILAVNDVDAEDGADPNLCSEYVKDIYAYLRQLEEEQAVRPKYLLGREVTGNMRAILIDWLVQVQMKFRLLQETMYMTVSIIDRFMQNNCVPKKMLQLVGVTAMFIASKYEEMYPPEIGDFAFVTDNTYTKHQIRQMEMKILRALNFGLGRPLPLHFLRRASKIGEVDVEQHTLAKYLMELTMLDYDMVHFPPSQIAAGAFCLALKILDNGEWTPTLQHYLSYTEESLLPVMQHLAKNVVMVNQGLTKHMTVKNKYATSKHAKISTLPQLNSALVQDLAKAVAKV
T10 sequence (P50750 whole entry): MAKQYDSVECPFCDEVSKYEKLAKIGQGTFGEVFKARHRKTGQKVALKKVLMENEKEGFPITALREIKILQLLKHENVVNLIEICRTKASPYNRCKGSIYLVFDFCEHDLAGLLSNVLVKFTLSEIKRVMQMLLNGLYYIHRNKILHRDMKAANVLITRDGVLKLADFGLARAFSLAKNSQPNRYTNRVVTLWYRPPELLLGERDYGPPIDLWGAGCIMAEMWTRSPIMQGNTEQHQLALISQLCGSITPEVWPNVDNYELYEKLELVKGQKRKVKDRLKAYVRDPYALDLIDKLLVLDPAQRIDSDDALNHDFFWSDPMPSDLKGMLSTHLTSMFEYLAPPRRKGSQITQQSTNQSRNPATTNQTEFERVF
T10 sequence (O60563 whole entry partner): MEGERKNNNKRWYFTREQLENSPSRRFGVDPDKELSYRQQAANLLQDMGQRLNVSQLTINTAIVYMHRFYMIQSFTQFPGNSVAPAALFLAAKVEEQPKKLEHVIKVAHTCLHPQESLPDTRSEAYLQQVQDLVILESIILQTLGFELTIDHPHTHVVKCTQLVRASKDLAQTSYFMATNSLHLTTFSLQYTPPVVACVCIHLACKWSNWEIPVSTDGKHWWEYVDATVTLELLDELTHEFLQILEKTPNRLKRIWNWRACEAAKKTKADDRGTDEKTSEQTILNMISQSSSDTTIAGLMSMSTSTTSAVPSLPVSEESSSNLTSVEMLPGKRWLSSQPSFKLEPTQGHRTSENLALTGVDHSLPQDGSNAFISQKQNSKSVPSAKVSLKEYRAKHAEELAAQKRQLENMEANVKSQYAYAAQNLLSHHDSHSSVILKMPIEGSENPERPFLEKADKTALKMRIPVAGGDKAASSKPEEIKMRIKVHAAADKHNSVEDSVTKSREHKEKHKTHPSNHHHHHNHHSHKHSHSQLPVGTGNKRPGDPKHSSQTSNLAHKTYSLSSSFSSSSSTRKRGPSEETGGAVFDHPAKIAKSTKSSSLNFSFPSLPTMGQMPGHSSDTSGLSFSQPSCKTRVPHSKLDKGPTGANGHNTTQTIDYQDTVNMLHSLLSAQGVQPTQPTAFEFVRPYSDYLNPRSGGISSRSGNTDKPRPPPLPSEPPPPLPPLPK
T3 sequence (O94921 whole entry): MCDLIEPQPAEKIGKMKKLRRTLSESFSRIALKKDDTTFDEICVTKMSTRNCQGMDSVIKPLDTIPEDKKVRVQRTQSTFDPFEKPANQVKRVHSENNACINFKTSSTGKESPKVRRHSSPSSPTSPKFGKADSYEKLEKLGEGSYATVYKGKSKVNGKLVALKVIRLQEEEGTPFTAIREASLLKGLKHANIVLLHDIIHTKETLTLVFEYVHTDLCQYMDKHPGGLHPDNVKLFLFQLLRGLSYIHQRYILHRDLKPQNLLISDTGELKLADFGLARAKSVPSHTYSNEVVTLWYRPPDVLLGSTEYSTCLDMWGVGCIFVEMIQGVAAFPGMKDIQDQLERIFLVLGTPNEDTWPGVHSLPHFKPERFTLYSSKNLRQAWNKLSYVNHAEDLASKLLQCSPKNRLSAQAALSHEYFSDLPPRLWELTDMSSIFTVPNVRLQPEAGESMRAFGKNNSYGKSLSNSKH
T3 sequence (Q8ND76 whole entry partner): as the sequence (Q8ND76 whole entry partner) above
T2 sequence (Q9BWU1 whole entry): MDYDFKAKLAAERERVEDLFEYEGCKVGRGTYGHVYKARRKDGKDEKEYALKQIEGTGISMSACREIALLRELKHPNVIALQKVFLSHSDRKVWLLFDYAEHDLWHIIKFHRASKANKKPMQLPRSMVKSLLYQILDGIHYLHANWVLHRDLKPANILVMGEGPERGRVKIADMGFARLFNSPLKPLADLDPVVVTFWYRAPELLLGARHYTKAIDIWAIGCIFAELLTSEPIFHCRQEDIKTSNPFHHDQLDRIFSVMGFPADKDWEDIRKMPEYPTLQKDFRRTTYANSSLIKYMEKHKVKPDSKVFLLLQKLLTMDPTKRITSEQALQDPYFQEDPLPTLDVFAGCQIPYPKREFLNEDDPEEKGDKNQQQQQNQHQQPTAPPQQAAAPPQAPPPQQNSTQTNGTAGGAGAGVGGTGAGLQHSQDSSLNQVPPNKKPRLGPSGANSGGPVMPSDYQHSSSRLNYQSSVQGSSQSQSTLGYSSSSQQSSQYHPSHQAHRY

Turning to `COC[C@@H](C)N[C@H]1CC[C@H](Nc2cc(-c3csc(NCC4(C#N)CCOCC4)n3)c(Cl)cn2)CC1` [Compound 1, 4-(((4-(5-chloro-2-(((1R,4r)-4-(((R)-1-methoxypropyl-2-yl)amino)cyclohexyl)amino)pyridin-4-yl)thiazol-2-yl)amino)methyl)tetrahydro-2H-pyran-4-carbonitrile], the pIC50 against CDK1/cyclin B was 5.27; against CDK11(non-active), less than 5.00; on CDK14/cyclin Y, 5.57; against CDK16/cyclin Y it was 6.71; against CDK2/cyclin A, 5.16; against CDK3/cyclin E1, less than 5.00. For the same molecule, the pIC50 on CDK5/p25 is 5.16; against CDK7/cyclin HMNAT1, 5.43; against CDK8/cyclin C it was less than 5.00; against CDK9/cyclin T1, 9.03. The “effect on the phosphorylation of RNAPII, MCL-1, and c-MYC directly downstream of CDK9 protein” value in data set [1], in [2], in [3] and in [4] was “significant inhibitory effect” in each case. The “effect on the body weight of mice” value in data set [5] (high dose group (20, 30 mg/kg)) was “affected the body weight”; in data set [5] (low dose group (10 mg/kg)) it was “no significant effect”. Besides, the “inhibitory effects on cancer cells tested (in words)” value in [6] was “significant inhibitory effects”.
